In patent US12077503B2, “Substituted cyclic amides and their use as herbicides” (FMC CORPORATION, priority 2015, dated 2024):

How the values were obtained:
Test in all cases: Test C preemergence
Type in all cases: in vivo
Conditions in all cases: scale 0 to 100, 0 no effect, 100 complete control
[1] = system: velvetleaf (Abutilon theophrasti)
How it was run: (§1)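 Greenhouse test: seeds in a loam and sand blend treated preemergence, or seedlings at the 1- to 4-leaf stage (2 to 18 cm) in a peat, vermiculite and limestone mix treated postemergence, with test chemicals in a surfactant-containing non-phytotoxic solvent. Scored by eye at 13 to 15 d relative to controls, 0 (no effect) to 100 (complete control).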

[2] = system: foxtail, giant (giant foxtail, Setaria faberii)
How it was run: as §1

[3] = system: ryegrass, Italian (Italian ryegrass, Lolium multiflorum)
How it was run: as §1

[4] = system: barnyardgrass (Echinochloa crus-galli)
How it was run: as §1

soybean (Glycine max) = system: soybean (Glycine max)
How it was run: as §1

[5] = system: nutsedge, yellow (yellow nutsedge, Cyperus esculentus)
How it was run: as §1

[6] = system: wheat (winter wheat, Triticum aestivum)
How it was run: as §1

[7] = system: waterhemp (common waterhemp, Amaranthus rudis)
How it was run: as §1

[8] = system: oilseed rape (Brassica napus)
How it was run: as §1

[9] = system: blackgrass (Alopecurus myosuroides)
How it was run: as §1

corn (Zea mays) = system: corn (Zea mays)
How it was run: as §1

[10] = system: morningglory (Ipomoea coccinea)
How it was run: as §1

[11] = system: crabgrass, large (large crabgrass, Digitaria sanguinalis)
How it was run: as §1

[12] = system: johnsongrass (Sorghum halepense)
How it was run: as §1

[13] = system: pigweed (Amaranthus retroflexus)
How it was run: as §1

[14] = system: ragweed (common ragweed, Ambrosia elatior)
How it was run: as §1

For `CN1CC(c2cccc(OC(F)(F)C(F)F)c2)C(C(=O)Nc2ccc(F)cc2F)C1=O` (centres unmarked) [Compound 393], the “Plant response rating, Velvetleaf” value ([1]; 62 g ai/ha) was 35, the “Plant response rating, Velvetleaf” value ([1]; 125 g ai/ha) was 50 and the “Plant response rating, Velvetleaf” value ([1]; 250 g ai/ha) was 80. For the same compound, the “Plant response rating, Foxtail, Giant” value ([2]; 31 g ai/ha) was 90, the “Plant response rating, Foxtail, Giant” value ([2]; 62 g ai/ha) was 95 and the “Plant response rating, Foxtail, Giant” value ([2]; 125 g ai/ha) was 95. For the same compound, the “Plant response rating, Foxtail, Giant” value ([2]; 250 g ai/ha) was 95, the “Plant response rating, Ryegrass, Italian” value ([3]; 62 g ai/ha) was 30 and the “Plant response rating, Ryegrass, Italian” value ([3]; 125 g ai/ha) was 30. For the same compound, the “Plant response rating, Ryegrass, Italian” value ([3]; 250 g ai/ha) was 45, the “Plant response rating, Barnyardgrass” value ([4]; 31 g ai/ha) was 90 and the “Plant response rating, Barnyardgrass” value ([4]; 62 g ai/ha) was 90. For the same compound, the “Plant response rating, Barnyardgrass” value ([4]; 125 g ai/ha) was 95, the “Plant response rating, Barnyardgrass” value ([4]; 250 g ai/ha) was 95 and the “Plant response rating, Soybean” value (soybean (Glycine max); 62 g ai/ha) was 10. For the same compound, the “Plant response rating, Soybean” value (soybean (Glycine max); 125 g ai/ha) was 15, the “Plant response rating, Soybean” value (soybean (Glycine max); 250 g ai/ha) was 30 and the “Plant response rating, Nutsedge, Yellow” value ([5]; 31 g ai/ha) was 0. The “Plant response rating, Nutsedge, Yellow” value ([5]; 62 g ai/ha) was 0, the “Plant response rating, Nutsedge, Yellow” value ([5]; 125 g ai/ha) was 0 and the “Plant response rating, Nutsedge, Yellow” value ([5]; 250 g ai/ha) was 0. For the same compound, the “Plant response rating, Wheat” value ([6]; 62 g ai/ha) was 20, the “Plant response rating, Wheat” value ([6]; 125 g ai/ha) was 35 and the “Plant response rating, Wheat” value ([6]; 250 g ai/ha) was 70. The “Plant response rating, Waterhemp” value ([7]; 62 g ai/ha) was 80, the “Plant response rating, Waterhemp” value ([7]; 125 g ai/ha) was 85 and the “Plant response rating, Waterhemp” value ([7]; 250 g ai/ha) was 90. The “Plant response rating, Oilseed Rape” value ([8]; 31 g ai/ha) was 0, the “Plant response rating, Oilseed Rape” value ([8]; 62 g ai/ha) was 40 and the “Plant response rating, Oilseed Rape” value ([8]; 125 g ai/ha) was 80. The “Plant response rating, Oilseed Rape” value ([8]; 250 g ai/ha) was 85, the “Plant response rating, Blackgrass” value ([9]; 31 g ai/ha) was 10 and the “Plant response rating, Blackgrass” value ([9]; 62 g ai/ha) was 55. The “Plant response rating, Blackgrass” value ([9]; 125 g ai/ha) was 70, the “Plant response rating, Blackgrass” value ([9]; 250 g ai/ha) was 90 and the “Plant response rating, Corn” value (corn (Zea mays); 31 g ai/ha) was 0. The “Plant response rating, Corn” value (corn (Zea mays); 62 g ai/ha) was 40, the “Plant response rating, Corn” value (corn (Zea mays); 125 g ai/ha) was 55 and the “Plant response rating, Corn” value (corn (Zea mays); 250 g ai/ha) was 70. For the same compound, the “Plant response rating, Morningglory” value ([10]; 31 g ai/ha) was 0, the “Plant response rating, Morningglory” value ([10]; 62 g ai/ha) was 10 and the “Plant response rating, Morningglory” value ([10]; 125 g ai/ha) was 10. The “Plant response rating, Morningglory” value ([10]; 250 g ai/ha) was 10, the “Plant response rating, Crabgrass, Large” value ([11]; 31 g ai/ha) was 95 and the “Plant response rating, Crabgrass, Large” value ([11]; 62 g ai/ha) was 95. The “Plant response rating, Crabgrass, Large” value ([11]; 125 g ai/ha) was 95, the “Plant response rating, Crabgrass, Large” value ([11]; 250 g ai/ha) was 98 and the “Plant response rating, Johnsongrass” value ([12]; 31 g ai/ha) was 70. The “Plant response rating, Johnsongrass” value ([12]; 62 g ai/ha) was 80, the “Plant response rating, Johnsongrass” value ([12]; 125 g ai/ha) was 85 and the “Plant response rating, Johnsongrass” value ([12]; 250 g ai/ha) was 85. For the same compound, the “Plant response rating, Pigweed” value ([13]; 31 g ai/ha) was 70, the “Plant response rating, Pigweed” value ([13]; 62 g ai/ha) was 75 and the “Plant response rating, Pigweed” value ([13]; 125 g ai/ha) was 85. The “Plant response rating, Pigweed” value ([13]; 250 g ai/ha) was 90, the “Plant response rating, Ragweed” value ([14]; 31 g ai/ha) was 35 and the “Plant response rating, Ragweed” value ([14]; 62 g ai/ha) was 35. The “Plant response rating, Ragweed” value ([14]; 125 g ai/ha) was 40 and the “Plant response rating, Ragweed” value ([14]; 250 g ai/ha) was 65.
